In PMC7970798 (Computational and Structural Biotechnology Journal, 2021) one finds Kd data, which are given here for 1 sequence.

The Kd is the equilibrium constant for the complex coming apart. Low readings indicate higher affinity, high ones lower affinity.

The target in this assay is PALS1 F318W (Homo sapiens, UniProt Q8N3R9, F318W). The assay is described as follows: biochemical. The format is binding.

No end group written: not given here.

Chain of PALS1 F318W (Q8N3R9 256-336 F318W limits assumed): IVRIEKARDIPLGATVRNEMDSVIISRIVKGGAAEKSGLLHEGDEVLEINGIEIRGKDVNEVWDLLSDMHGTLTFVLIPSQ

“VKNLNSSRVPDLLV [SARS-CoV-2, VKNLNSSRVPDLLV]” gave a Kd of 29 ± 4 µM.
